From ChEMBL document CHEMBL4346751, “Comparative analysis of stilbene and benzofuran neolignan derivatives as acetylcholinesterase inhibitors with neuroprotective and anti-inflammatory activities” (Bioorg Med Chem Lett, 2019)
The source made the active and inactive calls. No cut-off for these calls is given here.

Legend:
[1] = test system: RAW264.7; experiment: Antiinflammatory activity in mouse RAW264.7 cells assessed as inhibition of LPS/IFNgamma-induced NO production by measuring NO level preincubated for 2 hrs and followed by LPS/IFNgamma addition and measured after 24 hrs by Griess assay; assay type: functional, cell-based
[2] = test system: PC-12; experiment: Neuroprotective activity against TBHP-induced cellular damage in rat PC12 cells assessed as cell viability at 10 uM pretreated for 1 hr followed by TBHP addition and measured after 3 hrs by CCK8 assay (reference value: 27.3%); assay type: functional; details: for viability at 10 µM: read-out: Activity
[3] = target: Acetylcholinesterase (Electrophorus electricus, UniProt O42275); experiment: (§1) Inhibition of electric eel AChE using acetylthiocholine iodide as substrate pretreated for 15 mins followed by substrate addition and measured after 60 mins by Ellman's method
[4] = target: Acetylcholinesterase (Electrophorus electricus) (UniProt O42275); experiment: as §1
[5] = target: Acetylcholinesterase (Electrophorus electricus) (UniProt O42275); experiment: Inhibition of electric eel AChE at 12.5 uM using acetylthiocholine iodide as substrate pretreated for 15 mins followed by substrate addition and measured after 60 mins by Ellman's method relative to control
[6] = test system: PC-12; experiment: Toxicity in TBHP treated rat PC12 cells assessed as reduction cell viability at 10 uM pretreated for 1 hr followed by TBHP addition and measured after 3 hrs by CCK8 assay; assay type: cell-based; details: pc-12, 3 h

Chain of Acetylcholinesterase (Electrophorus electricus) (O42275 24-633 limits assumed): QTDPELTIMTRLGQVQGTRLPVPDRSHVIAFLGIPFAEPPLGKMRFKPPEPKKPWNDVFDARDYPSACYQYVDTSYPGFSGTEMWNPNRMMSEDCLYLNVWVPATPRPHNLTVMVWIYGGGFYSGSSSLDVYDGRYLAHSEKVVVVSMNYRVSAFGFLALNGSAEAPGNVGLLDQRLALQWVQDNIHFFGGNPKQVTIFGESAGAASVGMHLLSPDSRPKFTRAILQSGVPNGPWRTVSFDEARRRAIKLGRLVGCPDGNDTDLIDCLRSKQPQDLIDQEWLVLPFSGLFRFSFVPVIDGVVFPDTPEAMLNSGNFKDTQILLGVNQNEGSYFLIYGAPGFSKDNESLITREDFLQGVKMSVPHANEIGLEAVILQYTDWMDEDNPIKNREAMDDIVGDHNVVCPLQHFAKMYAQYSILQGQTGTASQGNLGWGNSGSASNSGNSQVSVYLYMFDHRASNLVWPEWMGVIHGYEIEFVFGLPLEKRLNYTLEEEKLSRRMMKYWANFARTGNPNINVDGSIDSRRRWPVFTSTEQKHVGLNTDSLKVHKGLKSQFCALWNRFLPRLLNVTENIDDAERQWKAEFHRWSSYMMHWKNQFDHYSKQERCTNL
Chain of Acetylcholinesterase (O42275 whole entry): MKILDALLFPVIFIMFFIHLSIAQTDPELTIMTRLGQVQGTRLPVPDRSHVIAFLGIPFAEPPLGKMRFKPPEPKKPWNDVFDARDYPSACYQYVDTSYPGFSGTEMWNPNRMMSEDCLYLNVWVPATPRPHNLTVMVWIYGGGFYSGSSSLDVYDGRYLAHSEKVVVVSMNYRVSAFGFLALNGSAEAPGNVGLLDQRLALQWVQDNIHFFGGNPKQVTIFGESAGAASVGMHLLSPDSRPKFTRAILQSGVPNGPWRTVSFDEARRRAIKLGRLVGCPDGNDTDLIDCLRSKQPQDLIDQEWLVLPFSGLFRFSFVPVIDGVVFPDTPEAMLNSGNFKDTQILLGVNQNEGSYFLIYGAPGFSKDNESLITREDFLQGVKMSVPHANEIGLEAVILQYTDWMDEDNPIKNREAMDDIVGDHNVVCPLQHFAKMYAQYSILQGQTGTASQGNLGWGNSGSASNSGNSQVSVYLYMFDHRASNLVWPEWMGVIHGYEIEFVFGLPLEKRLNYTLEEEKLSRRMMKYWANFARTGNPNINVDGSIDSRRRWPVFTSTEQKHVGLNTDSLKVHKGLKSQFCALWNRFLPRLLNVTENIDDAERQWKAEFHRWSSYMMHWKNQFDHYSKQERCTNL

Row | SMILES | IC50 [1] | inhibition [1] | viability at 10 µM [2] | IC50 [3] | inhibition [4] | inhibition [5] | Activity [6] | Activity [2]
1 | Oc1ccc(/C=C/c2cc(O)cc(O)c2)cc1 [RESVERATROL] | 44.1 µM | Dose-dependent effect | 57.5% | – | – | – | – | –
2 | COc1cc(/C=C/c2ccc(O)cc2)cc(OC)c1 [PTEROSTILBENE] | 30 µM | Dose-dependent effect | – | – | – | – | – | –
3 | O=c1c(O)c(-c2ccc(O)c(O)c2)oc2cc(O)cc(O)c12 [QUERCETIN] | – | – | 65.1% | – | – | – | – | –
4 | COc1cc(/C=C/C(=O)OCCCc2cc(OC)c3c(c2)C(COC(=O)/C=C/c2ccc(O)c(OC)c2)C(c2ccc(O)c(OC)c2)O3)ccc1O (stereo unspecified) | 9.4 µM | Dose-dependent effect | 72.7% | 29.8 µM | Dose-dependent effect | – | – | –
5 | Oc1ccc([C@H]2Oc3ccc(/C=C/c4cc(O)cc(O)c4)cc3[C@@H]2c2cc(O)cc(O)c2)cc1 | 80.2 µM | Dose-dependent effect | 60.2% | 4.3 µM | – | > 50% | – | –
6 | COc1cc(/C=C/c2ccc3c(c2)[C@H](c2cc(OC)cc(OC)c2)[C@@H](c2ccc(O)cc2)O3)cc(OC)c1 | 24 µM | Dose-dependent effect | 75.5% | 11.7 µM | – | > 50% | – | –
7 | COC(=O)/C=C/c1cc(OC)c2c(c1)[C@H](C(=O)OC)[C@@H](c1ccc(O)c(OC)c1)O2 (racemic) | 51.4 µM | Dose-dependent effect | – | – | inactive | – | – | –
8 | COc1cc([C@@H]2Oc3c(OC)cc(/C=C/C(=O)NCCc4ccc(O)cc4)cc3[C@H]2C(=O)NCCc2ccc(O)cc2)ccc1O [GROSSAMIDE] | 24.7 µM | Dose-dependent effect | – | 39.3 µM | Dose-dependent effect | – | Toxic | inactive
9 | COC(=O)CCc1cc(OC)c2c(c1)[C@H](C(=O)OC)[C@@H](c1ccc(O)c(OC)c1)O2 | 231 µM | Dose-dependent effect | – | – | inactive | – | – | –
10 | COc1cc([C@H]2Oc3c(OC)cc(CCCO)cc3[C@@H]2CO)ccc1O [DIHYDRODEHYDRODICONIFERY ALCOHOL] | 60.4 µM | Dose-dependent effect | – | – | inactive | – | – | –
